According to patent US20210007356A1, “IMIDE DERIVATIVE AND FUNGICIDE CONTAINING SAID DERIVATIVE AS ACTIVE INGREDIENT” (HOKKO CHEMICAL INDUSTRY CO., LTD., priority 2018, published 2021):
Read-outs that look alike come from different tables or passages of the source.

Experiments:
[1] = tested on: rice blast fungus (Pyricularia grisea); assay type: in vivo; details: flowable 1,000 ppm, 1 mL dripped in paddy water, inoculated after 1 week, 7 days after inoculation
[2] = tested on: rice sheath blight fungus (Thanatephorus cucumeris); assay: Test Example 6: control effect against rice sheath blight by box treatment (flowable formulation); details: flowable 5,000 ppm, 50 mL irrigation of nursery box, paddy rice; inoculated after 3 weeks; 7 days after inoculation
Method: (§1) Control value (%)=[1−(lesion height in sprayed plot/lesion height in unsprayed plot)]×100 (d)
By irrigation, 50 mL of a diluted solution (5,000 ppm) of a flowable prepared according to Formulation Example-3 was applied to a 2.5-leaf-stage paddy rice (variety: Asahi) seedling raised using a nursery box ( 1/10 the area of standard nursery box in size: 12 cm×15 cm×height 4 cm) within a greenhouse. The formulation-treated paddy rice seedling was immediately transplanted at 5 seedlings/pot into a pot ( 1/10000 are in size) filled with paddy soil (flooded). After growing for 3 weeks within a greenhouse, a culture of rice sheath blight fungus (Thanatephorus cucumeris) grown in advance on a rice straw medium was inoculated into the root of the formulation-treated paddy rice, and disease development was promoted in an artificial weather chamber at 26° C. (relative humidity=100%). Seven days after the inoculation, the rice sheath blight lesion height (height from the root) was examined, and the control value (%) was calculated according to formula (d). […] This test was performed with three replications, each consisting of one plot and one pot, per one formulation plot, and its average evaluation value of control effect was determined.

[3] = tested on: rice blast fungus (Pyricularia grisea); assay type: in vivo; details: 5 g of granule on nursery box, paddy rice; inoculated after 3 weeks; 7 days after inoculation
[4] = tested on: rice blast fungus (Pyricularia grisea); assay type: in vivo; details: flowable 5,000 ppm, 50 mL irrigation of nursery box, paddy rice; inoculated after 3 weeks; 7 days after inoculation
[5] = tested on: barley powdery mildew fungus (Erysiphe graminis); assay: Test Example 2: control effect against barley powdery mildew by foliage application; assay type: in vivo; details: wettable powder diluted to 100 ppm, 10 mL per pot foliage spray on barley; inoculated day after; 7 days after inoculation
[6] = tested on: rice sheath blight fungus (Thanatephorus cucumeris); assay: Test Example 8: control effect against rice sheath blight by box treatment (granule); details: 5 g of granule on nursery box, paddy rice; inoculated after 3 weeks; 7 days after inoculation
From the text: as §1
From the top of a nursery box, 5 g of a granule prepared according to Formulation Example-4 was applied to a 2.5-leaf-stage paddy rice (variety: Asahi) seedling raised using a nursery box ( 1/10 the area of standard nursery box in size: 12 cm×15 cm×height 4 cm) within a greenhouse. The formulation-treated paddy rice seedling was immediately transplanted at 5 seedlings/pot into a pot ( 1/10000 are in size) filled with paddy soil (flooded). After growing for 3 weeks within a greenhouse, a culture of rice sheath blight fungus (Thanatephorus cucumeris) grown in advance on a rice straw medium was inoculated into the root of the formulation-treated paddy rice, and disease development was promoted in an artificial weather chamber at 26° C. (relative humidity=100%). Seven days after the inoculation, the rice sheath blight lesion height (height from the root) was examined, and the control value (%) was calculated according to formula (d). […] This test was performed with three replications, each consisting of one plot and one pot, per one formulation plot, and its average evaluation value of control effect was determined.

[7] = tested on: rice sheath blight fungus (Thanatephorus cucumeris); assay: Test Example 10: control effect against rice sheath blight by water surface application (flowable formulation); details: flowable 1,000 ppm, 1 mL dripped in paddy water, inoculated after 1 week, 7 days after inoculation
Method: as §1
By dripping treatment in paddy water, 1 mL of a diluted solution (1,000 ppm) of a flowable prepared according to Formulation Example-3 was applied to a 5-leaf-stage paddy rice (variety: Asahi) seedling (5 seedlings/stub, one stub/pot) grown in a pot ( 1/10000 are in size) filled with paddy soil (flooded) within a greenhouse. After growing for 1 week within a greenhouse, a culture of rice sheath blight fungus (Thanatephorus cucumeris) grown in advance on a rice straw medium was inoculated into the root of the formulation-treated paddy rice, and disease development was promoted in an artificial weather chamber at 26° C. (relative humidity=100%). Seven days after the inoculation, the rice sheath blight lesion height (height from the root) was examined, and the control value (%) was calculated according to formula (d). […] This test was performed with three replications, each consisting of one plot and one pot, per one formulation plot, and its average evaluation value of control effect was determined.

Compound | evaluation value of control effect (from control value, number of lesions) [1] | evaluation value of control effect (from control value, lesion height) [2] | evaluation value of control effect (from control value, number of lesions) [3] | evaluation value of control effect (from control value, number of lesions) [4] | evaluation value of control effect (from control value, lesion area percentage) [5] | evaluation value of control effect (from control value, lesion height) [6] | evaluation value of control effect (from control value, lesion height) [7]
CC(C)CC(C)c1ccccc1N(C(=O)c1cc(F)nc(F)c1)C(=O)c1cn(C)nc1C(F)F (centres unmarked) [1-380] | 5 | 5 | 5 | 5 | 5 | 5 | 5
CC(C)CC(C)c1ccccc1N(C(=O)c1cc(Cl)c(Cl)s1)C(=O)c1cn(C)nc1C(F)F (centres unmarked) [1-359] | 5 | 5 | 5 | 5 | 4 | 5 | 5
Cc1nc(C(F)(F)F)c(C(=O)N(C(=O)c2snnc2C(F)F)c2c(Br)cc(OC(F)(F)F)cc2Br)s1 [7-281] | 5 | 5 | 5 | 5 | 4 | 5 | 5
Cc1nc(C(F)F)c(C(=O)N(C(=O)c2cc(Cl)c(Cl)s2)c2cccc3c2C(C)OC3(C)C)s1 (centres unmarked) [26-90] | 5 | 5 | 5 | 5 |  | 5 | 5
Cc1nc(C(F)F)c(C(=O)N(C(=O)c2cccc3nnsc23)c2cccc3c2C(C)OC3(C)C)s1 (centres unmarked) [26-62] | 5 | 5 | 5 | 5 | 4 | 5 | 5
Cc1nc(C(F)F)c(C(=O)N(C(=O)c2cc(Cl)nc(Cl)c2)c2ccccc2C(C)CC(C)C)s1 (centres unmarked) [7-188] | 5 | 5 | 5 | 5 | 4 | 5 | 5
Cc1nc(C(F)F)c(C(=O)N(C(=O)c2cc(F)nc(F)c2)c2ccccc2C(C)CC(C)C)s1 (centres unmarked) [7-288] | 5 | 5 | 5 | 5 | 4 | 5 | 5
CC1OC(C)(C)c2cccc(N(C(=O)c3cn(C)nc3C(F)F)C(=O)c3snc(Cl)c3Cl)c21 (centres unmarked) [25-10] | 5 | 5 | 5 | 5 | 4 | 5 | 5
Cc1nn(C)c(Cl)c1C(=O)N(C(=O)c1snnc1C(F)F)c1cccc2c1C(C)OC2(C)C (centres unmarked) [25-117] | 5 | 5 | 5 | 5 |  | 5 | 5
Cc1nc(C(F)F)c(C(=O)N(C(=O)c2onc(Cl)c2Cl)c2cccc3c2C(C)OC3(C)C)s1 (centres unmarked) [26-92] | 5 | 5 | 5 | 5 |  | 5 | 5
Cc1nc(C(F)F)c(C(=O)N(C(=O)c2cccc3nnsc23)c2ccccc2C(C)CC(C)C)s1 (centres unmarked) [7-200] | 5 |  | 5 | 5 | 4 |  | 
Cc1ncccc1C(=O)N(C(=O)c1snc(Cl)c1Cl)c1ccccc1C(C)CC(C)C (centres unmarked) [13-52] | 5 |  | 5 | 5 | 4 |  | 
CC(C)CC(C)c1ccccc1N(C(=O)c1cccnc1F)C(=O)c1snc(Cl)c1Cl (centres unmarked) [13-51] | 5 |  | 5 | 5 | 4 |  | 
CCc1nc(C(F)F)c(C(=O)N(C(=O)c2sc(C)nc2C(F)F)c2cccc3c2C(C)OC3(C)C)s1 (centres unmarked) [26-70] | 5 | 5 | 5 | 5 |  | 5 | 5
CC1OC(C)(C)c2cccc(N(C(=O)c3cccnc3C(F)F)C(=O)c3cccc4nnsc34)c21 (centres unmarked) [27-28] | 5 | 5 | 5 | 5 |  | 5 | 5
CC(C)CC(C)c1sccc1N(C(=O)c1cn(C)nc1C(F)(F)F)C(=O)c1snc(Cl)c1Cl (centres unmarked) [5-1, 3,4-Dichloro-N-{2-(1,3-dimethylbutyl)-3-thienyl}-N-{1-methyl-3-(trifluoromethyl)pyrazole-4-carbonyl}isothiazole-5-carboxamide] | 5 |  | 5 | 5 | 5 |  | 
Cc1nc(C(F)F)c(C(=O)N(C(=O)c2snc(Cl)c2Cl)c2ccsc2C(C)CC(C)C)s1 (centres unmarked) [11-8] | 5 |  | 5 | 5 | 5 |  | 
CCc1nc(C(F)F)c(C(=O)N(C(=O)c2snc(Cl)c2Cl)c2ccccc2C(C)CC(C)C)s1 (centres unmarked) [7-132] | 5 |  | 5 | 5 | 4 |  | 
CC1CC(C)(C)c2cccc(N(C(=O)c3cn(C)nc3C(F)F)C(=O)c3scnc3C(F)F)c21 (centres unmarked) [25-109] | 5 |  | 5 | 5 | 4 |  | 
CCC(C)Oc1cccc(N(C(=O)c2sc(C)nc2C(F)F)C(=O)c2snc(Cl)c2Cl)c1C (centres unmarked) [7-125] | 5 |  | 5 | 5 | 4 |  | 
CC1CC(C)(C)c2cccc(N(C(=O)c3cn(C)nc3C(F)F)C(=O)c3cccc4nnsc34)c21 (centres unmarked) [25-73] | 5 |  | 5 | 5 | 5 |  | 
Cc1nc(C(F)F)c(C(=O)N(C(=O)c2cccnc2C(F)F)c2cccc3c2C(C)OC3(C)C)s1 (centres unmarked) [27-36] | 5 | 5 | 5 | 5 |  | 5 | 5
Cc1nnsc1C(=O)N(C(=O)c1c(C)nn(C)c1F)c1ccccc1C(C)CC(C)C (centres unmarked) [1-158] | 5 |  | 5 | 5 | 4 |  | 
